From PubChem BioAssay (NCI)
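96-well plates; 48 h exposure; 5 concentrations. Endpoints by linear interpolation between flanking doses. Not reached: highest tested concentration assigned. GI50 is the concentration that inhibits growth by half. Definition used: TGI = concentration required for complete inhibition of growth.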

How the values were obtained:
Assay in all cases: growth of human tumour cells (NCI), 48 h; in the data active = GI50 below about 0.43 µM; inactive = the rest
MDA-MB-435 = system: MDA-MB-435
HCT-15 colon = system: HCT-15 colon
SF-295 CNS = system: SF-295 CNS
CCRF-CEM leukemia = system: CCRF-CEM leukemia
OVCAR-4 ovarian = system: OVCAR-4 ovarian
U251 CNS = system: U251 CNS
UO-31 renal = system: UO-31 renal
OVCAR-8 ovarian = system: OVCAR-8 ovarian
KM12 colon = system: KM12 colon
SK-MEL-2 melanoma = system: SK-MEL-2 melanoma
SR leukemia = system: SR leukemia
SF-539 CNS = system: SF-539 CNS
A549 NSCLC = system: A549 NSCLC
MDA-N = system: MDA-N
OVCAR-5 ovarian = system: OVCAR-5 ovarian
IGROV1 ovarian = system: IGROV1 ovarian
K-562 leukemia = system: K-562 leukemia
COLO 205 colon = system: COLO 205 colon
UACC-257 melanoma = system: UACC-257 melanoma
SK-OV-3 ovarian = system: SK-OV-3 ovarian
SF-268 CNS = system: SF-268 CNS
PC-3 prostate = system: PC-3 prostate
SN12C renal = system: SN12C renal
SK-MEL-5 melanoma = system: SK-MEL-5 melanoma
HCT-116 colon = system: HCT-116 colon
HCC-2998 colon = system: HCC-2998 colon
NCI/ADR-RES ovarian = system: NCI/ADR-RES ovarian
TK-10 renal = system: TK-10 renal
NCI-H522 lung = system: NCI-H522 lung
HL-60(TB) leukemia = system: HL-60(TB) leukemia
NCI-H226 lung = system: NCI-H226 lung
HT29 colon = system: HT29 colon
DU-145 prostate = system: DU-145 prostate
A498 renal = system: A498 renal
OVCAR-3 ovarian = system: OVCAR-3 ovarian
MCF7 breast = system: MCF7 breast
RXF 393 renal = system: RXF 393 renal
NCI-H460 lung = system: NCI-H460 lung
T-47D breast = system: T-47D breast
MDA-MB-231 breast = system: MDA-MB-231 breast
EKVX NSCLC = system: EKVX NSCLC
RPMI-8226 leukemia = system: RPMI-8226 leukemia
CAKI-1 renal = system: CAKI-1 renal
SK-MEL-28 melanoma = system: SK-MEL-28 melanoma
HOP-92 NSCLC = system: HOP-92 NSCLC
SNB-19 CNS = system: SNB-19 CNS
MALME-3M melanoma = system: MALME-3M melanoma
LOX IMVI melanoma = system: LOX IMVI melanoma
M14 melanoma = system: M14 melanoma
BT-549 breast = system: BT-549 breast
HOP-62 NSCLC = system: HOP-62 NSCLC
NCI-H23 lung = system: NCI-H23 lung
UACC-62 melanoma = system: UACC-62 melanoma
SNB-75 CNS = system: SNB-75 CNS
HS 578T breast = system: HS 578T breast
MOLT-4 leukemia = system: MOLT-4 leukemia
786-0 renal = system: 786-0 renal
ACHN renal = system: ACHN renal
SW-620 colon = system: SW-620 colon

O=C1c2cccnc2-c2nc(-c3ccccn3)cc3c2c1nc1ccccc13
632 nM: TGI (K-562 leukemia)
inactive: GI50 (MDA-MB-435) 728 nM | GI50 (SK-MEL-2 melanoma) 1060 nM | GI50 (A549 NSCLC) 1380 nM | GI50 (OVCAR-5 ovarian) 745 nM | GI50 (COLO 205 colon) 804 nM | GI50 (UACC-257 melanoma) 533 nM | GI50 (SF-268 CNS) 449 nM | GI50 (PC-3 prostate) 557 nM | GI50 (NCI-H226 lung) 936 nM | GI50 (HT29 colon) 850 nM | GI50 (A498 renal) 481 nM | GI50 (MCF7 breast) 463 nM | GI50 (T-47D breast) 601 nM | GI50 (EKVX NSCLC) 620 nM | GI50 (SK-MEL-28 melanoma) 452 nM | GI50 (SNB-19 CNS) 1130 nM | GI50 (SNB-75 CNS) 1690 nM | GI50 (HS 578T breast) 705 nM
3810 nM: TGI (SNB-75 CNS)
1500 nM: TGI (A498 renal)
3390 nM: TGI (A549 NSCLC)
1750 nM: TGI (SK-MEL-28 melanoma)
2950 nM: TGI (HT29 colon)
630 nM: TGI (UACC-62 melanoma)
1110 nM: TGI (TK-10 renal)
2890 nM: TGI (NCI-H226 lung)
2090 nM: TGI (MDA-MB-435)
219 nM: TGI (UO-31 renal)
1030 nM: TGI (RPMI-8226 leukemia)
729 nM: TGI (HOP-92 NSCLC)
1970 nM: TGI (UACC-257 melanoma)
2650 nM: TGI (SNB-19 CNS)
268 nM: TGI (NCI-H460 lung)
305 nM: TGI (IGROV1 ovarian)
1700 nM: TGI (SF-295 CNS)
295 nM: TGI (SF-539 CNS)
368 nM: TGI (ACHN renal)
1480 nM: TGI (HCC-2998 colon)
5840 nM: TGI (RXF 393 renal)
2220 nM: TGI (MCF7 breast)
11900 nM: TGI (T-47D breast)
1780 nM: TGI (NCI-H23 lung)
658 nM: TGI (NCI/ADR-RES ovarian)
1650 nM: TGI (SK-MEL-5 melanoma)
1520 nM: TGI (LOX IMVI melanoma)
2100 nM: TGI (EKVX NSCLC)
259 nM: TGI (HCT-15 colon)
4650 nM: TGI (HS 578T breast)
500 nM: TGI (MDA-MB-231 breast)
1490 nM: TGI (HOP-62 NSCLC)
402 nM: TGI (OVCAR-8 ovarian)
1850 nM: TGI (PC-3 prostate)
3430 nM: TGI (OVCAR-5 ovarian)
1720 nM: TGI (MALME-3M melanoma)
3350 nM: TGI (COLO 205 colon)
672 nM: TGI (BT-549 breast)
1360 nM: TGI (M14 melanoma)
332 nM: TGI (HCT-116 colon)
1190 nM: TGI (SN12C renal)
581 nM: TGI (SK-OV-3 ovarian)
4090 nM: TGI (MOLT-4 leukemia)
309 nM: TGI (OVCAR-3 ovarian)
570 nM: TGI (DU-145 prostate)
320 nM: TGI (NCI-H522 lung)
260 nM: TGI (OVCAR-4 ovarian) | TGI (786-0 renal)
active: GI50 (HCT-15 colon) < 20.9 nM | GI50 (SF-295 CNS) 423 nM | GI50 (CCRF-CEM leukemia) 61.9 nM | GI50 (OVCAR-4 ovarian) 69.9 nM | GI50 (U251 CNS) 149 nM | GI50 (UO-31 renal) 53.9 nM | GI50 (OVCAR-8 ovarian) 150 nM | GI50 (KM12 colon) 426 nM | GI50 (SF-539 CNS) 92.6 nM | GI50 (MDA-N) 259 nM | GI50 (IGROV1 ovarian) 99 nM | GI50 (K-562 leukemia) 136 nM | GI50 (SK-OV-3 ovarian) 192 nM | GI50 (SN12C renal) 210 nM | GI50 (SK-MEL-5 melanoma) 265 nM | GI50 (HCT-116 colon) 88.5 nM | GI50 (HCC-2998 colon) 412 nM | GI50 (NCI/ADR-RES ovarian) 208 nM | GI50 (TK-10 renal) 296 nM | GI50 (NCI-H522 lung) 141 nM | GI50 (HL-60(TB) leukemia) 66 nM | GI50 (DU-145 prostate) 156 nM | GI50 (OVCAR-3 ovarian) 161 nM | GI50 (RXF 393 renal) 285 nM | GI50 (NCI-H460 lung) 61.6 nM | GI50 (MDA-MB-231 breast) 185 nM | GI50 (RPMI-8226 leukemia) 253 nM | GI50 (CAKI-1 renal) 119 nM | GI50 (HOP-92 NSCLC) 241 nM | GI50 (MALME-3M melanoma) 377 nM | GI50 (LOX IMVI melanoma) 287 nM | GI50 (M14 melanoma) 228 nM | GI50 (BT-549 breast) 249 nM | GI50 (HOP-62 NSCLC) 139 nM | GI50 (NCI-H23 lung) 374 nM | GI50 (UACC-62 melanoma) 191 nM | GI50 (MOLT-4 leukemia) 211 nM | GI50 (786-0 renal) 82.5 nM | GI50 (ACHN renal) 33.3 nM
2520 nM: TGI (SK-MEL-2 melanoma)
781 nM: TGI (CAKI-1 renal)
3170 nM: TGI (KM12 colon)
1250 nM: TGI (MDA-N)
306 nM: TGI (U251 CNS)
25300 nM: TGI (SR leukemia)
2500 nM: TGI (SF-268 CNS)

CCOC(=O)NC(Nc1cccc(F)c1)(C(F)(F)F)C(F)(F)F
> 100000 nM: TGI (MDA-MB-435) | TGI (HCT-15 colon) | TGI (SF-295 CNS) | TGI (CCRF-CEM leukemia) | TGI (U251 CNS) | TGI (UO-31 renal) | TGI (OVCAR-8 ovarian) | TGI (KM12 colon) | TGI (SK-MEL-2 melanoma) | TGI (SR leukemia) | TGI (SF-539 CNS) | TGI (A549 NSCLC) | TGI (MDA-N) | TGI (OVCAR-5 ovarian) | TGI (IGROV1 ovarian) | TGI (K-562 leukemia) | TGI (COLO 205 colon) | TGI (UACC-257 melanoma) | TGI (SK-OV-3 ovarian) | TGI (SF-268 CNS) | TGI (PC-3 prostate) | TGI (SN12C renal) | TGI (SK-MEL-5 melanoma) | TGI (HCT-116 colon) | TGI (HCC-2998 colon) | TGI (NCI/ADR-RES ovarian) | TGI (TK-10 renal) | TGI (NCI-H522 lung) | TGI (HL-60(TB) leukemia) | TGI (NCI-H226 lung) | TGI (HT29 colon) | TGI (DU-145 prostate) | TGI (A498 renal) | TGI (OVCAR-3 ovarian) | TGI (MCF7 breast) | TGI (RXF 393 renal) | TGI (SW-620 colon) | TGI (NCI-H460 lung) | TGI (T-47D breast) | TGI (MDA-MB-231 breast) | TGI (EKVX NSCLC) | TGI (RPMI-8226 leukemia) | TGI (CAKI-1 renal) | TGI (SK-MEL-28 melanoma) | TGI (HOP-92 NSCLC) | TGI (SNB-19 CNS) | TGI (MALME-3M melanoma) | TGI (LOX IMVI melanoma) | TGI (M14 melanoma) | TGI (BT-549 breast) | TGI (HOP-62 NSCLC) | TGI (NCI-H23 lung) | TGI (UACC-62 melanoma) | TGI (SNB-75 CNS) | TGI (HS 578T breast) | TGI (MOLT-4 leukemia) | TGI (786-0 renal) | TGI (ACHN renal)

COP(=N[Si](C)(C)C)(OC)OC
> 100000 nM: TGI (MDA-MB-435) | TGI (HCT-15 colon) | TGI (CCRF-CEM leukemia) | TGI (OVCAR-4 ovarian) | TGI (U251 CNS) | TGI (UO-31 renal) | TGI (OVCAR-8 ovarian) | TGI (KM12 colon) | TGI (SK-MEL-2 melanoma) | TGI (SR leukemia) | TGI (SF-539 CNS) | TGI (A549 NSCLC) | TGI (MDA-N) | TGI (OVCAR-5 ovarian) | TGI (IGROV1 ovarian) | TGI (K-562 leukemia) | TGI (COLO 205 colon) | TGI (UACC-257 melanoma) | TGI (SK-OV-3 ovarian) | TGI (SF-268 CNS) | TGI (PC-3 prostate) | TGI (SN12C renal) | TGI (SK-MEL-5 melanoma) | TGI (HCT-116 colon) | TGI (HCC-2998 colon) | TGI (NCI/ADR-RES ovarian) | TGI (TK-10 renal) | TGI (NCI-H522 lung) | TGI (HL-60(TB) leukemia) | TGI (NCI-H226 lung) | TGI (HT29 colon) | TGI (DU-145 prostate) | TGI (A498 renal) | TGI (OVCAR-3 ovarian) | TGI (MCF7 breast) | TGI (RXF 393 renal) | TGI (SW-620 colon) | TGI (NCI-H460 lung) | TGI (T-47D breast) | TGI (MDA-MB-231 breast) | TGI (EKVX NSCLC) | TGI (RPMI-8226 leukemia) | TGI (CAKI-1 renal) | TGI (SK-MEL-28 melanoma) | TGI (HOP-92 NSCLC) | TGI (SNB-19 CNS) | TGI (MALME-3M melanoma) | TGI (LOX IMVI melanoma) | TGI (M14 melanoma) | TGI (BT-549 breast) | TGI (HOP-62 NSCLC) | TGI (NCI-H23 lung) | TGI (UACC-62 melanoma) | TGI (SNB-75 CNS) | TGI (HS 578T breast) | TGI (MOLT-4 leukemia) | TGI (786-0 renal) | TGI (ACHN renal)
